pKi: −log10 of the molar value.
What follows are compounds tested against T1, Dimer of Gag-Pol polyprotein [489-587] (Human immunodeficiency virus 1, UniProt P12497) (assay: Protease Inhibition Assay). Details: pH 5.5; 37 °C.
T1 construct: 489-587
Method: Protease activity was measured by continuous chromogenic assay. The chromogenic peptide His-Lys-Ala-Arg-Val-Leu- (p-NO2-Phe)-Glu-Ala-Nleu-Ser (Bachem) was used as a substrate. Reactions were followed by the decrease of absorbance at 300 nm measured by spectrophotometer. Experimental results were analyzed by the nonlinear regression analysis, using a mathematical model for tight binding inhibitors.

Compared with `NC(=O)C[C@H](NC(=O)c1ccc2ccccc2n1)C(=O)N[C@@H](Cc1ccccc1)[C@@H](O)C[C@@H](Cc1ccccc1)C(=O)NC(c1ccccc1)c1cc2ccccc2[nH]1` (stereo partly drawn) [2 -Benzyl-4-h ydrox y-5((N -2-quinaloyl-L-asparagyl)amidno)-6-phenylhexanoic Acid (a-(2-indolylbenzyl)amide], `NC(=O)C[C@H](NC(=O)c1ccc2ccccc2n1)C(=O)N[C@@H](Cc1ccccc1)[C@@H](O)CCC(=O)NC(c1ccccc1)c1cc2ccccc2[nH]1` (stereo partly drawn) [(2S)-N-[(2S,3S)-3-hydroxy-5-{[1H-indol-2-yl(phenyl)methyl]carbamoyl}-1-phenylpentan-2-yl]-2-(quinolin-2-ylformamido)butanediamide] is 1.48 log units higher in pKi: 5.89 for the first, 7.37 for the second.

First: NC(=O)C[C@H](NC(=O)c1ccc2ccccc2n1)C(=O)N[C@@H](Cc1ccccc1)[C@@H](O)CCC(=O)NC(c1ccccc1)c1nc2ccccc2[nH]1 (stereo partly drawn) [4-Hydroxy-5-( (N-2-quinaloyl-L-asparagyl)amino)-6-phenylhexanoic Acid (a-(2-benzyimidazolyl)benzyl)amide]
Second: Cc1cccc(C(NC(=O)CC[C@H](O)[C@H](Cc2ccccc2)NC(=O)[C@H](CC(N)=O)NC(=O)c2ccc3ccccc3n2)c2cc3ccccc3[nH]2)c1 (stereo partly drawn) [4-Hydroxy-5-((N-2-quinaloyl-L-asparagyl)amino)-6-phenylhexanoic Acid (a-(2-indolyl)-m-methylbenzyl)amide]
The pKi of the first is 1.09 log units lower: 6.32 for the first, 7.41 for the second.

First: C[C@H](N)C(=O)N[C@@H](C)C(=O)N[C@@H](Cc1ccccc1)[C@@H](O)CCC(=O)NC(c1ccccc1)c1nc2ccccc2[nH]1 (stereo partly drawn) [5-(L-Alanyl-L-alanylamino)-4-hydroxy-phenylhexanoic Acid ((1H-BenzimiaazOl-2-yl)phenylmethyl)amide]
Second: NC(=O)C[C@H](NC(=O)c1ccc2ccccc2n1)C(=O)N[C@@H](Cc1ccccc1)[C@@H](O)CCC(=O)NC(c1cccc(C(F)(F)F)c1)c1cc2ccccc2[nH]1 (stereo partly drawn) [(2S)-N-[(2S,3S)-3-hydroxy-5-({1H-indol-2-yl[3-(trifluoromethyl)phenyl]methyl}carbamoyl)-1-phenylpentan-2-yl]-2-(quinolin-2-ylformamido)butanediamide]
The pKi of the first is 2.21 log units lower: 5.27 for the first, 7.48 for the second. The second binds more tightly here.

Compared with `NC(=O)C[C@H](NC(=O)c1ccc2ccccc2n1)C(=O)N[C@@H](Cc1ccccc1)[C@@H](O)CCC(=O)NC(c1cc2ccccc2[nH]1)C1CCCCC1` (stereo partly drawn) [(2S)-N-[(2S,3S)-5-{[cyclohexyl(1H-indol-2-yl)methyl]carbamoyl}-3-hydroxy-1-phenylpentan-2-yl]-2-(quinolin-2-ylformamido)butanediamide], `COC(=O)[C@@H](NC(=O)[C@@H](NC(=O)CC[C@H](O)[C@H](Cc1ccccc1)NC(=O)[C@H](C)NC(=O)[C@H](C)N)C(C)C)C(C)C` [methyl (2S)-2-[(2S)-2-[(4S,5S)-5-[(2S)-2-[(2S)-2-aminopropanamido]propanamido]-4-hydroxy-6-phenylhexanamido]-3-methylbutanamido]-3-methylbutanoate] is 1.00 log units higher in pKi: 6.74 for the first, 7.74 for the second. The second binds more tightly here.

Source: BindingDB's records for doi:10.1021/jm00041a005 (Agouron Pharmaceuticals, 1994)
